Test results from ChEMBL document CHEMBL1201862, “PubChem BioAssay data set” (2004).
One block for each compound: values may come before it. Active and inactive are the calls of the source.

Legend:
[1] = Luminescence Cell-Based Dose Confirmation HTS to Identify Inhibitors of Polyadenylation.; format: functional
[2] = glucagon-like peptide-1 release potency in STC-1, concentration-response, half-maximal inhibitory concentration in the STC-1 line (AID 1117345); format: functional, cell-based
[3] = IC50 of insulin release inhibition, rat insulinoma INS-1E line, 5 mM glucose, cell-based (AID 1117331); format: functional
[4] = Potency on glucagon-like peptide 1 release, dose-response in NCI-H716 cell line, half maximal inhibitory concentration (AID 1117344); format: functional, cell-based
Genome polyprotein = Genome polyprotein (Hepatitis C virus, UniProt Q2Q167); assay: disruption of hepatitis C core self-association – biochemical, TR-FRET, dose response (AID 2159); design: species or system Hepacivirus hominis;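 further: blocks dimerization of HCV core protein measured by TR-FRET between tagged core106 pairs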
Chain of Genome polyprotein (Q2Q167 whole entry): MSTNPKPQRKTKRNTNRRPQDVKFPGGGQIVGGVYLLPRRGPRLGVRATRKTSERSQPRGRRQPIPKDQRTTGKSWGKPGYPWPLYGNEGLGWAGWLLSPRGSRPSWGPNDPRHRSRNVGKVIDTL

Caspase-6 = target: T1, Caspase-6 (Homo sapiens, UniProt P55212); assay: inhibition of CASP6 peptide cleavage – biochemical, VEID-R110 fluorescence, cherry-pick, dose response (AID 720632)
T1 sequence (P55212 whole entry): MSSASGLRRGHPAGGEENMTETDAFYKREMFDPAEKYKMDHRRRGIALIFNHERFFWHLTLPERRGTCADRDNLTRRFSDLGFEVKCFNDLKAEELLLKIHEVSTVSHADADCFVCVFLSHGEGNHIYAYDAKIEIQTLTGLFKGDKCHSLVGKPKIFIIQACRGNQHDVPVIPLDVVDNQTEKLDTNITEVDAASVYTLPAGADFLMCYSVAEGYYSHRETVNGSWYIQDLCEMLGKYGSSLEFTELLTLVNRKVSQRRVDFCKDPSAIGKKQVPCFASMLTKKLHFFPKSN

INS1 = assay: INS-1E survival protection against cytokine death – cell-based, luminescence, retest, dose response (AID 449756); format: functional; conditions: Rattus norvegicus;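 further: cell death triggered by IL-1 beta plus TNF-alpha plus IFN-gamma mixture; protective hits raise ATP signal compared with cytokine alone wells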
Bcl-2-related protein A1 [5] = target: T2, Bcl-2-related protein A1 (Mus musculus, UniProt Q07440); assay: Bfl-1 binding inhibitors, SAR follow-up, biochemical, fluorescence polarization (AID 1070)
T2 sequence (Q07440 whole entry): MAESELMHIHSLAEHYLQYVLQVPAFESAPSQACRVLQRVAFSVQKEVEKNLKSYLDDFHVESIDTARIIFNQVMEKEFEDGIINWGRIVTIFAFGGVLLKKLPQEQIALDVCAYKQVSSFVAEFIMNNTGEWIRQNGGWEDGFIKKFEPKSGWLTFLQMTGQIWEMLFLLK

[6] = target: Glyceraldehyde-3-phosphate dehydrogenase (Homo sapiens, UniProt P04406)
Chain of Glyceraldehyde-3-phosphate dehydrogenase (P04406 whole entry): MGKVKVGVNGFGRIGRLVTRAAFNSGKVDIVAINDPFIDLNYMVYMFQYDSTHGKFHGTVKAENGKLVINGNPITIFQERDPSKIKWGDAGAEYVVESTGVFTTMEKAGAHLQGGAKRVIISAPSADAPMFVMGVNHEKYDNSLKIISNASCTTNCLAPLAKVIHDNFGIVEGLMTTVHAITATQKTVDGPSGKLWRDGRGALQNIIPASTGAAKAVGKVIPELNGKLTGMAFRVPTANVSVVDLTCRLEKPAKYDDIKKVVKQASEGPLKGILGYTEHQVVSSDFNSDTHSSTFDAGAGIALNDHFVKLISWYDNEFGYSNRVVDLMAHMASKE

Bcl-2-related protein A1 [7] = target: T2, Bcl-2-related protein A1; assay: small-molecule antagonists of Bfl-1/BH3 interaction – biochemical, TR-FRET, mouse Bfl-1, confirmation (AID 621);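 further: TR-FRET binding of GST-Bfl-1 to FITC-labelled Bid peptide via terbium antibody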
[8] = target: Protein-tyrosine kinase 2-beta (Homo sapiens, UniProt Q14289);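 further: potency of inhibitors of PYK2 kinase phosphorylation of poly-GT substrate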
Chain of Protein-tyrosine kinase 2-beta (Q14289 whole entry, the tested form may be a part): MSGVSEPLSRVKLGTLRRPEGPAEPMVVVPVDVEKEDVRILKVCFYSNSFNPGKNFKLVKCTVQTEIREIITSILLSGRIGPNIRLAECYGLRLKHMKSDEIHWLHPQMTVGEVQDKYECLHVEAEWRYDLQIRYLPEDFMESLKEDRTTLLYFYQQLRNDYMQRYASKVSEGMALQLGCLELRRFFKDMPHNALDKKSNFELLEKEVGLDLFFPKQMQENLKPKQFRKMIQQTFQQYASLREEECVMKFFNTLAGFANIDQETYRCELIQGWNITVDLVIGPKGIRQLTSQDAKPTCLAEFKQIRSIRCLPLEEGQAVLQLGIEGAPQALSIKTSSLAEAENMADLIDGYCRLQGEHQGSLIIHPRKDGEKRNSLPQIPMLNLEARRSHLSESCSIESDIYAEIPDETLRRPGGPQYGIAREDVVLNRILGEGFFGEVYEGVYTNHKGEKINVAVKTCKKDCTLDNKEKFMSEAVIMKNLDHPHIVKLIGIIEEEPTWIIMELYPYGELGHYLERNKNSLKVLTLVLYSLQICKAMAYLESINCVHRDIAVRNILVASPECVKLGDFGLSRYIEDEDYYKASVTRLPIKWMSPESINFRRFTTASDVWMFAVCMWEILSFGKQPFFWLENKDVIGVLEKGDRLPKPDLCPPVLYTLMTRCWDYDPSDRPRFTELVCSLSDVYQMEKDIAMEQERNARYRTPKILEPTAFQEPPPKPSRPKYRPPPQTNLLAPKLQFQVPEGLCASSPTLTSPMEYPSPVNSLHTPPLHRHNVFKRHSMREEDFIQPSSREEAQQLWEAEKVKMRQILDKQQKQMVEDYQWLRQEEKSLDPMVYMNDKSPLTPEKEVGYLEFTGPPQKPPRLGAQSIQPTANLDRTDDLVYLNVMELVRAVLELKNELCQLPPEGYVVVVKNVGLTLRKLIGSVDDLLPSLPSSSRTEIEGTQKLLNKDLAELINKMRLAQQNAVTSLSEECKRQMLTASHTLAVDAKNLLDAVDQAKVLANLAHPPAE

[9] = target: T3, RNA-binding protein pos-1 (Caenorhabditis elegans, UniProt G5EF15); assay: disruptors of C. elegans POS-1 RNA interaction – biochemical, fluorescence polarization, dose response (AID 1964);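 further: purified POS-1 fused to maltose binding protein made in E. coli; potency of compounds blocking POS-1 binding to fluorescent RNA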
T3 sequence (G5EF15 whole entry): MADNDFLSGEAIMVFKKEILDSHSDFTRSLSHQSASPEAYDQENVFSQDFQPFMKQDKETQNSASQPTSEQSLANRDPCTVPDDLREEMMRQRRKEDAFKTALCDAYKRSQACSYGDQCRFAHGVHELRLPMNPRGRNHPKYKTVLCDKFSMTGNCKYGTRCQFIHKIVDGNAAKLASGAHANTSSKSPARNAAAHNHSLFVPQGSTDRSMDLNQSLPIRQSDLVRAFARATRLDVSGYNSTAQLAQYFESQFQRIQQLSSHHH

[10] = target: T4, Zinc finger protein mex-5 (Caenorhabditis elegans, UniProt Q9XUB2); assay: potency of MEX-5 RNA-binding blockers – biochemical, C. elegans, fluorescence polarization, dose response (AID 1960)
T4 sequence (Q9XUB2 whole entry): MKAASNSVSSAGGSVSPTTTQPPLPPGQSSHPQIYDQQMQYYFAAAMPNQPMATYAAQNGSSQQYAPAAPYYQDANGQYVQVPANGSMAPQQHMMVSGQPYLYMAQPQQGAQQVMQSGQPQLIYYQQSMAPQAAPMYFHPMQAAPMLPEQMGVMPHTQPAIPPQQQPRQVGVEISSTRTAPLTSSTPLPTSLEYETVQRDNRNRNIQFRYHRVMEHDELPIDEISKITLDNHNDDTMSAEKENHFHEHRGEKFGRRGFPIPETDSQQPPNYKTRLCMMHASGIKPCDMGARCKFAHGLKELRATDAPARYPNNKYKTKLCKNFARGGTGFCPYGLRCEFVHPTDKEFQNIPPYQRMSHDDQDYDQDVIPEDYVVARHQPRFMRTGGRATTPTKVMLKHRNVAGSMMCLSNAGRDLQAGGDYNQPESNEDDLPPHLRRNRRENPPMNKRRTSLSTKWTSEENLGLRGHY

Large T antigen = Large T antigen (Simian virus 40, UniProt P03070); format: functional, Betapolyomavirus macacae;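 further: Confirmatory-stage PubChem screen for compounds that inhibit SV40 T antigen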
Chain of Large T antigen (P03070 whole entry): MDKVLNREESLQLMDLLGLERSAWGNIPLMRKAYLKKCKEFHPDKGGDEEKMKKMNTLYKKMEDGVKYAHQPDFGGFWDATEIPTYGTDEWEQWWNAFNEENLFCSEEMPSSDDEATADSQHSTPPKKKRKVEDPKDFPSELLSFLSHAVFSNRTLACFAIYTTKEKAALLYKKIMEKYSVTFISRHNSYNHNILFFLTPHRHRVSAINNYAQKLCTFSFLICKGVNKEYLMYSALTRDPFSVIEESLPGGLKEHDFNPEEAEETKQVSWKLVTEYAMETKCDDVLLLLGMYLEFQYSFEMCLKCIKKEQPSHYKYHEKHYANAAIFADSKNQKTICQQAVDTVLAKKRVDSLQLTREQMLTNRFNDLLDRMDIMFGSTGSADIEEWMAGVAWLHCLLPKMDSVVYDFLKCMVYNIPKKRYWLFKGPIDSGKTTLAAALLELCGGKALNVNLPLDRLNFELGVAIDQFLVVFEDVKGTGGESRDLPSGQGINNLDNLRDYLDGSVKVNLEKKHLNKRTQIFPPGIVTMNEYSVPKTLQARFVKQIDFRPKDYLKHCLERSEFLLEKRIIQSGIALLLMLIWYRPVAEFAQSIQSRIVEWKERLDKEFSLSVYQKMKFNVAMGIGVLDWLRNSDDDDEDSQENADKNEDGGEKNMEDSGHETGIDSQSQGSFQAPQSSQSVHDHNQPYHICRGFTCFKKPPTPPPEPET

[11] = target: E3 ubiquitin-protein ligase Mdm2 (Homo sapiens, UniProt Q00987); assay: MDM2-luc reporter signal enhancers, multi-concentration potency testing, MDM2 ubiquitin-protein ligase inhibitor program, whole-cell format, luminescence detection, 384-well microplate (AID 1394); format: functional;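 further: MDM2 E3 inhibitors raise luminescence so EC50 is for signal enhancement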
Chain of E3 ubiquitin-protein ligase Mdm2 (Q00987 whole entry): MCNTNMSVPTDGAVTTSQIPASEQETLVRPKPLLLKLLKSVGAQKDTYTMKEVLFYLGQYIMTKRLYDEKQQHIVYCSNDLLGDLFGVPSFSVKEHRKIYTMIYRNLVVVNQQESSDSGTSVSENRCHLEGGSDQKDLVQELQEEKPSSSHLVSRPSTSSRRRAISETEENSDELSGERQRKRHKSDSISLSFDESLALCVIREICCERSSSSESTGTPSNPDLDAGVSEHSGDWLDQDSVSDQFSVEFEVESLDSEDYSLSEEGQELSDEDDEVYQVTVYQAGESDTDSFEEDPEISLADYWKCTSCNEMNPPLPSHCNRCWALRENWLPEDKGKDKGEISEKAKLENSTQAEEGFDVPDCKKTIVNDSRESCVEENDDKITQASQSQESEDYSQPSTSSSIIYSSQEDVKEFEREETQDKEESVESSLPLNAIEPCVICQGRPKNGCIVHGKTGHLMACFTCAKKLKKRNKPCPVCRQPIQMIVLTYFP

SMILES: COc1ccc2no[n+]([O-])c2c1
EC50 [1]: > 120 µM (not active)

SMILES: COC(=O)C(Cl)C(=O)OC
IC50 [2]: 8.37 µM (inactive)
IC50 [3]: > 33.3 µM (inactive)
IC50 [4]: > 40 µM (inactive)

SMILES: CC1=NN(c2ccc(C)c(C)c2)C(=O)/C1=C\C=C\c1ccc([N+](=O)[O-])o1
IC50 (Genome polyprotein): > 49.8 µM (not active)
AC50 (Caspase-6): 1.79 µM (active)
AC50 (INS1): 4.08 µM (active)

IC50 (Bcl-2-related protein A1 [5]): 6.96 µM (active)
IC50 [6]: > 100 µM (not active)
IC50 (Bcl-2-related protein A1 [7]): 1.95 µM (active)
SMILES: CC1CN(C2=C(Cl)C(=O)N(c3ccc(Cl)c(Cl)c3)C2=O)CCN1 (stereo unspecified)

IC50 [8]: 10.6 µM (not active)
EC50 [9]: > 300 µM (not active)
EC50 [10]: > 300 µM (not active)
IC50 (Large T antigen): 36 µM (active)
SMILES: Oc1ccc2ccccc2c1/C=N/c1ccc(N2CCOCC2)cc1

EC50 [11]: 0.39 µM (not active)
SMILES: COc1ccc2[nH]c(C(=O)O)c(CCNC(C)=O)c2c1

SMILES: Cc1ccc(O)cc1 [p-CRESOL]
IC50 [2]: > 40 µM (inactive)
IC50 [3]: > 33.3 µM (inactive)
IC50 [4]: > 40 µM (inactive)

SMILES: O=C1C(Cl)=C(Cl)C(=O)N1c1ccnc(Cl)c1
IC50 (Bcl-2-related protein A1 [5]): > 100 µM (not active)
IC50 [6]: > 100 µM (not active)
IC50 (Bcl-2-related protein A1 [7]): 39.9 µM (active)
